From patent US7470679B2, “Constrained compounds as CGRP-receptor antagonists” (Bristol-Myers Squibb Company, priority 2006, dated 2008)

biological target: T1, CGRP receptor (Homo sapiens, UniProt O60894+Q16602); test: CGRP Binding Assay ([125I]-CGRP radioligand displacement, SK-N-MC homogenate); set-up: endogenous in cells; host or cells: SK-N-MC cells (membrane homogenate); details: Table 1, displacement of [125I]-CGRP
Description: CGRP Binding Assay. Tissue Culture. SK—N-MC cells were grown at 37° C. in 5% CO2 as a monolayer in medium consisting of MEM with Earle's salts and L-glutamine (Gibco) supplemented with 10% fetal bovine serum (Gibco). Cell Pellets. The cells were rinsed twice with phosphate-buffered saline (155 mM NaCl, 3.3 mM Na2HPO4, 1.1 mM KH2PO4, pH 7.4), and incubated for 5-10 min. at 4° C. in hypotonic lysis buffer consisting of 10 mM Tris (pH 7.4) and 5 mM EDTA. The cells were transferred from plates to polypropylene tubes (16×100 mm) and homogenized using a polytron. Homogenates were centrifuged at 32,000×g for 30 min. The pellets were resuspended in cold hypotonic lysis buffer with 0.1% mammalian protease inhibitor cocktail (Sigma) and assayed for protein concentration. The SK—N-MC homogenate was then aliquoted and stored at −80° C. until needed.
Radioligand Binding Assay. The compounds of invention were solubilized and carried through serial dilutions using 100% DMSO. Aliquots from the compound serial dilutions were further diluted 25 fold into assay buffer (50 mM Tris-Cl pH 7.5, 5 mM MgCl2, 0.005% Triton X-100) and transferred (volume 50 μl) into 96 well assay plates. [^125I]-CGRP (Amersham Biosciences) was diluted to 60 pM in assay buffer and a volume of 50 μl was added to each well. SK—N-MC pellets were thawed, diluted in assay buffer with fresh 0.1% mammalian protease inhibitor cocktail (Sigma), and homogenized again. SK—N-MC homogenate (5 μg/well) was added in a volume of 100 μl. The assay plates were then incubated at room temperature for 2 h. Assays were stopped by addition of excess cold wash buffer (20 mM Tris-Cl pH 7.5, 0.1% BSA) immediately followed by filtration over glass fiber filters (Whatman GF/B) previously soaked in 0.5% PEI. Non-specific binding was defined with 1 μM beta-CGRP. Protein bound radioactivity was determined using a gamma or scintillation counter. The IC50 was defined as the concentration of a compound of invention required to displace 50% of radioligand binding.

T1 sequence (Q16602 23-461): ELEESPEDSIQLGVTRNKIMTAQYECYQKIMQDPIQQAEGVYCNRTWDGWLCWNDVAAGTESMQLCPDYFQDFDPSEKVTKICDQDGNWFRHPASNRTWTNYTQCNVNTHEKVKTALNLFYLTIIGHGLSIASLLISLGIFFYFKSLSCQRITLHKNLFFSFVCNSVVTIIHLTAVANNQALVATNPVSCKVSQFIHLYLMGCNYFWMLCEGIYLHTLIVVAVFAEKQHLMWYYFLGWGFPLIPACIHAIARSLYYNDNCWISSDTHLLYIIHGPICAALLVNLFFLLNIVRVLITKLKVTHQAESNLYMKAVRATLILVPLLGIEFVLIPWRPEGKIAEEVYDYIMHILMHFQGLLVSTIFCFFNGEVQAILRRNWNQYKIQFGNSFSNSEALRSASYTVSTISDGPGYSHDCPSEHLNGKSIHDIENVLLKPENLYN
T1 sequence (O60894 27-148): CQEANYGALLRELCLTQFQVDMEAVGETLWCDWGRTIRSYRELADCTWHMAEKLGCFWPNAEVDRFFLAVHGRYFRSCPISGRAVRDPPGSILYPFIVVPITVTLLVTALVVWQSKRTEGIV

`O=C(C[C@@H]1Cc2cc(Br)c3[nH]nc(Br)c3c2CN(CC(F)(F)F)C1=O)N1CCC(c2cc3ccccc3[nH]c2=O)CC1` and `O=C(C[C@@H]1Cc2cc(Br)c3[nH]nc(Br)c3c2CN(CC(F)(F)F)C1=O)N1CCC(c2cc3cccc(F)c3[nH]c2=O)CC1` fall in the same range of IC50: 0.1 to 10 nM for the first, 0.1 to 10 nM for the second.

With `O=C1OCc2c(cc(Br)c3[nH]ncc23)C[C@H]1CC(=O)N1CCC(c2cc3ccccc3[nH]c2=O)CC1` the IC50 was 0.1 to 10 nM.

same assay, conditions: Table 2, displacement of [125I]-CGRP

`O=C1Nc2ccccc2CC1N1CCN(C(=O)C[C@@H]2Cc3ccc4[nH]ncc4c3CN(Cc3ccccc3)C2=O)CC1` (some centres unmarked) and `O=C1Nc2ccccc2CC1C1CCN(C(=O)C[C@@H]2Cc3ccc4[nH]ncc4c3CN(Cc3ccccc3)C2=O)CC1` (some centres unmarked) fall in the same range of IC50: 100 to 1000 nM for the first, 100 to 1000 nM for the second.

First: O=C(C[C@@H]1Cc2cc(Br)c3[nH]ncc3c2CN(CC2CC2)C1=O)N1CCC(c2cc3ccccc3[nH]c2=O)CC1
Second: COCCN1Cc2c(cc(Br)c3[nH]ncc23)C[C@@H](CC(=O)N2CCC(c3cc4cccc(F)c4[nH]c3=O)CC2)C1=O
The IC50 of the first is lower: 0.1 to 10 nM for the first, 10 to 100 nM for the second.

Compared with `CC(C)(C)CN1Cc2c(ccc3[nH]ncc23)C[C@@H](CC(=O)N2CCC(N3Cc4ccccc4CC3=O)CC2)C1=O`, `CC(C)(C)CN1Cc2c(ccc3[nH]ncc23)C[C@@H](CC(=O)N2CCC(N3Cc4ccccc4NC3=O)CC2)C1=O` is lower in IC50: 100 to 1000 nM for the first, 10 to 100 nM for the second. The second is the more potent here.

Compared with `O=C1NCCC2(CCN(C(=O)N[C@@H]3Cc4ccc5[nH]ncc5c4CN(Cc4ccc(C(F)(F)F)cc4)C3=O)CC2)N1`, `CC(C)(C)CN1Cc2c(ccc3[nH]ncc23)C[C@@H](NC(=O)N2CCC3(CC2)CNC(=O)c2ccccc23)C1=O` is higher in IC50: 100 to 1000 nM for the first, > 1000 nM for the second.

First: O=C1Nc2ccccc2C2(CCN(C(=O)NC3Cc4ccc5[nH]ncc5c4CN(CCc4ccncc4)C3=O)CC2)N1 (centres unmarked)
Second: O=C(NC1Cc2ccc3[nH]ncc3c2CN(CCc2ccncc2)C1=O)N1CCC(N2Cc3ccccc3NC2=O)CC1 (centres unmarked)
The IC50 of the first is higher: 100 to 1000 nM for the first, 0.1 to 10 nM for the second. The second is the more potent here.

First: CC(C)(C)CN1Cc2c(cc(Cl)c3[nH]ncc23)C[C@@H](CC(=O)Nc2ccc3c(c2)CC2(C3)NC(=O)NC2=O)C1=O (some centres unmarked)
Second: CC(C)(C)CN1Cc2c(cc(Cl)c3[nH]ncc23)C[C@@H](CC(=O)Nc2ccc3c(c2)CCC2(C3)NC(=O)NC2=O)C1=O (some centres unmarked)
The IC50 of the first is higher: 10 to 100 nM for the first, 0.1 to 10 nM for the second. The second is the more potent here.

`O=C(N[C@@H]1Cc2ccc3[nH]ncc3c2CN(CCN2CCOCC2)C1=O)N1CCC(N2Cc3ccccc3NC2=O)CC1` and `CC(C)(C)CN1Cc2c(ccc3[nH]ncc23)C[C@@H](CC(=O)N2CCC(n3cc(-c4ccccc4)[nH]c3=O)CC2)C1=O` fall in the same range of IC50: 10 to 100 nM for the first, 10 to 100 nM for the second.

`CC(C)(C)CN1Cc2c(cc(Cl)c3[nH]ncc23)C[C@@H](CC(=O)N2CCC(N3C(=O)CN(c4ccccc4)C3=O)CC2)C1=O` and `CC(C)(C)CN1Cc2c(cc(Cl)c3[nH]ncc23)C[C@@H](CC(=O)N2CCC(c3cc4ccccc4c[n+]3[O-])CC2)C1=O` fall in the same range of IC50: 10 to 100 nM for the first, 10 to 100 nM for the second.

With `O=C(C[C@@H]1Cc2cc(Cl)c3[nH]ncc3c2CN(Cc2cccnc2)C1=O)N1CCC(c2cc(-c3ccccc3)[nH]n2)CC1` the IC50 was 10 to 100 nM.

biological target: T1, CGRP receptor; test: Cyclic AMP Functional Antagonism Assay; assay type: cell-based; set-up: cells that endogenously express the human CGRP receptor; endogenous in cells; host or cells: SK-N-MC cells; details: Table 2; SK-N-MC cells, 0.3 nM CGRP, 30 min; read-out: cAMP Function IC50
Description: Cyclic AMP Functional Antagonism Assay. Antagonism of the compounds of invention was determined by measuring the formation of cyclic AMP (adenosine 3′5′-cyclic monophosphate) in SK—N-MC cells that endogenously express the human CGRP receptor. CGRP receptor complex is coupled with Gs protein and CGRP binding to this complex leads to the cyclic AMP production via Gs-dependent activation of an adenylate cyclase (Juaneda C et al., TiPS, 2000; 21:432-438; incorporated by reference herein). Consequently, CGRP receptor antagonists inhibit CGRP-induced cyclic AMP formation in SK—N-MC cells (Doods H et al., Br J Pharmacol, 2000; 129(3):420-423); incorporated by reference herein). For cyclic AMP measurements SK—N-MC cells were incubated with 0.3 nM CGRP alone or in the presence of various concentrations of the compounds of invention for 30 min at room temperature. Compounds of invention were pre-incubated with SK—N-MC cells for 15 min before the addition of CGRP to allow receptor occupancy (Edvinsson et al., Eur J Pharmacol, 2001, 415:39-44; incorporated by reference herein). Cyclic AMP was extracted using the lysis reagent and its concentration was determined by radioimmunoassay using RPA559 cAMP SPA Direct Screening Assay Kit (Amersham Pharmacia Biotech). IC50 values were calculated using Excel fit.

`O=C(NC1Cc2ccc3[nH]ncc3c2CN(CCc2ccncc2)C1=O)N1CCC(N2Cc3ccccc3NC2=O)CC1` (centres unmarked) and `CC(C)(C)CN1Cc2c(ccc3[nH]ncc23)C[C@@H](CC(=O)N2CCC(N3Cc4ccccc4NC3=O)CC2)C1=O` fall in the same range of IC50: 0.1 to 10 nM for the first, 0.1 to 10 nM for the second.

In the case of `CC(C)(C)CN1Cc2c(ccc3[nH]ncc23)C[C@@H](CC(=O)N2CCC(n3cc(-c4ccccc4)[nH]c3=O)CC2)C1=O`, the IC50 is reported as 10 to 100 nM.
